ChEMBL document CHEMBL1201862, “PubChem BioAssay data set” (2004)
Activity calls are given as the source filed them.

Legend:
HEK293 [1] = test: inhibition of NOD1-driven NF-kB reporter – cell-based, luminescence, uHTS, primary screen (AID 1578); assay type: functional; conditions: Homo sapiens
HEK293 [2] = test: cells; assay type: functional, cell-based; conditions: Homo sapiens
HEK293 [3] = test: NOD2 signaling inhibitors in MDP-stimulated cells, cell-based, uHTS, luminescence (AID 2001); assay type: functional; conditions: Homo sapiens
[4] = molecular target: T1, Microphthalmia-associated transcription factor (Homo sapiens, UniProt O75030); test: reducers of TRPM1 reporter luminescence, concentration series – cell-based, SK-MEL-5, cherry-picked, set 3, MITF inhibitor project, dose response (AID 493073); assay type: functional;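 also: SK-MEL-5 melanoma cells with luciferase driven by the MITF target TRPM1 promoter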
T1 sequence (O75030 whole entry): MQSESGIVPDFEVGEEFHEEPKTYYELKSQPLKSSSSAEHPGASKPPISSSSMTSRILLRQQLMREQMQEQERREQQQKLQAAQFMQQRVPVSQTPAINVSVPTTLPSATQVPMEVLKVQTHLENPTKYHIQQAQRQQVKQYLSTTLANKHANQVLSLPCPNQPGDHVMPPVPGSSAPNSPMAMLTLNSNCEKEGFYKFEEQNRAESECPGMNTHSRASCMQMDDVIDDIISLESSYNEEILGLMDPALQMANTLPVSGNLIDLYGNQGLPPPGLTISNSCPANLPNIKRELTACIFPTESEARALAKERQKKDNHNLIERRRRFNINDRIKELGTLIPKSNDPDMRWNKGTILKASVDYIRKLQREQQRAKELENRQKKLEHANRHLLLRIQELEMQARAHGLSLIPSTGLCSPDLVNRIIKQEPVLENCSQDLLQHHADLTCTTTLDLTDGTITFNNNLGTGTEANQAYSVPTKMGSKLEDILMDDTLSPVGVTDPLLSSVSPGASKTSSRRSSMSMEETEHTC

HEK293 [5] = test: cells; assay type: functional, cell-based; conditions: Homo sapiens; remark: listed apart in the source
HEK293 [6] = test: cells; assay type: functional, cell-based; conditions: Homo sapiens; remark: listed apart in the source
[7] = molecular target: Nucleotide-binding oligomerization domain-containing protein 2 (Homo sapiens, UniProt Q9HC29); test: inhibition of NOD2-driven NF-kB reporter – cell-based, luminescence, uHTS, HEK293 (AID 1566); assay type: functional
[8] = HEK-293T cell viability reduction – luminescence, B-cell screen hits, cytotoxicity control for BCR NF-kB inhibitor project, dose response (AID 489021); assay type: functional, cell-based;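 also: HEK-293T cells carrying an NF-kB luciferase reporter; cells exposed to compound for about 14 hours before viability readout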
Vero [9] = test: cells; assay type: functional; conditions: Chlorocebus sabaeus
Vero [10] = test: cells; assay type: functional, cell-based; conditions: Chlorocebus sabaeus
[11] = viability of PTEN-deleted HCT116 cells – cell-based, HCT116 PTEN knockout, dose response (AID 1047); assay type: functional;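 also: HCT116 colon tumor cells with PTEN knocked out; cells exposed to compound for 60 hours before readout; potency for loss of cell viability measured by luminescence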
[12] = viability of HCT116 lacking mutant beta-catenin – cell-based, human colon tumor, dose response (AID 1045); assay type: functional;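 also: HCT116 colon tumor cells with beta catenin knocked out; cells exposed to compound for 60 hours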
[13] = molecular target: T2, Voltage-gated N-type calcium channel alpha-1B subunit/Amyloid beta A4 precursor protein-binding family A member 1 (Homo sapiens, UniProt Q00975+Q02410); assay type: protein assay
[14] = molecular target: T2, Voltage-gated N-type calcium channel alpha-1B subunit/Amyloid beta A4 precursor protein-binding family A member 1; assay type: protein assay; remark: listed apart in the source
Cytochrome P450 3A4 = Cytochrome P450 3A4 (Homo sapiens, UniProt P08684);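 also: CYP3A4 tested as one member of a cytochrome P450 panel screen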
Cytochrome P450 2D6 = Cytochrome P450 2D6 (Homo sapiens, UniProt P10635);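 also: CYP2D6 member of a cytochrome P450 panel assay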
cells [15] = assay type: functional, cell-based
[16] = MIN6 cell viability loss – mouse insulinoma, cytotoxicity control, dose response (AID 2122); assay type: functional;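 also: confirmatory high-throughput counterscreen run to flag cytotoxic compounds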
[17] = Trypanosoma cruzi growth suppression in host cells – NIH3T3 host cells, beta-gal luminescence, confirmation (AID 2044); assay type: functional, cell-based;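 also: intracellular parasites grown in NIH/3T3 mouse fibroblasts as host cells; luminescent beta-galactosidase reporter signal from transgenic T. cruzi replicating inside host cells; inhibitors lower the luminescence signal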
[18] = tested on: Streptococcus sp. 'group A'; test: Streptococcus pyogenes SK(-)GAS viability under kanamycin – luminescence, BacTiterGlo, confirmation, counter-screen for streptokinase expression inhibitor project, dose response (AID 1900); assay type: functional, organism-based
Streptococcus = test: GAS UMAA2166 growth inhibition – luminescence, BacTiterGlo, counter-screen for streptokinase expression inhibitor project, dose response (AID 1915); assay type: functional, organism-based;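 also: potency for reduction of bacterial viability or growth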
[19] = Luminescence Cell-Based Dose Retest to Confirm Inhibitors of Cancer Stem Cells. [Related pubchem assays (depositor defined):AID2717, AID2721]; assay type: functional; conditions: Homo sapiens
cells [20] = assay type: functional, cell-based; remark: listed apart in the source
INS1 = test: INS-1E survival protection against cytokine death – cell-based, luminescence, retest, dose response (AID 449756); assay type: functional; conditions: Rattus norvegicus;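 also: cell death triggered by IL-1 beta plus TNF-alpha plus IFN-gamma mixture; protective hits raise ATP signal compared with cytokine alone wells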
[21] = NIH3T3 cell viability loss – ATP luminescence, mouse fibroblasts, counter-screen, dose response (AID 2010); assay type: functional, cell-based;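 also: cells exposed to compound for about 90 hours before reading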
[22] = decrease of insulin promoter-GFP reporter – imaging, high-content screening, mouse beta cells (AID 1628); assay type: functional; conditions: MIN6

Chain of Nucleotide-binding oligomerization domain-containing protein 2 (Q9HC29 whole entry, the tested form may be a part): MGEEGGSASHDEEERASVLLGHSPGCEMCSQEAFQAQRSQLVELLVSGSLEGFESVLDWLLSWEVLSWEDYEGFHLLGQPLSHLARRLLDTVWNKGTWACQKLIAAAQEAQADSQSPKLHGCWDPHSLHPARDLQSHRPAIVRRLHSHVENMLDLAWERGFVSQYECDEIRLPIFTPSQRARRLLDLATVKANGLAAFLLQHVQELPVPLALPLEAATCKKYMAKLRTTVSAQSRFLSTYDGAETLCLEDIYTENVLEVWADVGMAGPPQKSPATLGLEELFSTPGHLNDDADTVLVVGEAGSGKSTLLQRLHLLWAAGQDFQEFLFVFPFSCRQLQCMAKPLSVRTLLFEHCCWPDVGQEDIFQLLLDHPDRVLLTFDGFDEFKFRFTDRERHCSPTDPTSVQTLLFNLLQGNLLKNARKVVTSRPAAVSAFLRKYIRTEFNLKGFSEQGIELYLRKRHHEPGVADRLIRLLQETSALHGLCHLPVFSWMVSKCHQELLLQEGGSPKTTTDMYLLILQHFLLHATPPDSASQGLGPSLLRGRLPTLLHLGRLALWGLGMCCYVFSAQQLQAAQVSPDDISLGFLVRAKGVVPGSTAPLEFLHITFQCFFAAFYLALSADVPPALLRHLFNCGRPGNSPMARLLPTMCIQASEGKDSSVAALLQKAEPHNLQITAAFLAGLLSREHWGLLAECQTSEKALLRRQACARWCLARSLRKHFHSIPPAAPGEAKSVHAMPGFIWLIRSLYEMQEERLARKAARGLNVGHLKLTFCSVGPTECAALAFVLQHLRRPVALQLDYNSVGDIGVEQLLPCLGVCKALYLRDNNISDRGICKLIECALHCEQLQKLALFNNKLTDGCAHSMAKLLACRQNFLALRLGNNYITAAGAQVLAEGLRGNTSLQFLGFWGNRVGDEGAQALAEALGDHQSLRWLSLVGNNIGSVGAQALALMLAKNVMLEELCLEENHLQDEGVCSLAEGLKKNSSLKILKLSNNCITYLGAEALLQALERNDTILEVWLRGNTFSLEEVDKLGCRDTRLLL
Chain of Cytochrome P450 3A4 (P08684 whole entry): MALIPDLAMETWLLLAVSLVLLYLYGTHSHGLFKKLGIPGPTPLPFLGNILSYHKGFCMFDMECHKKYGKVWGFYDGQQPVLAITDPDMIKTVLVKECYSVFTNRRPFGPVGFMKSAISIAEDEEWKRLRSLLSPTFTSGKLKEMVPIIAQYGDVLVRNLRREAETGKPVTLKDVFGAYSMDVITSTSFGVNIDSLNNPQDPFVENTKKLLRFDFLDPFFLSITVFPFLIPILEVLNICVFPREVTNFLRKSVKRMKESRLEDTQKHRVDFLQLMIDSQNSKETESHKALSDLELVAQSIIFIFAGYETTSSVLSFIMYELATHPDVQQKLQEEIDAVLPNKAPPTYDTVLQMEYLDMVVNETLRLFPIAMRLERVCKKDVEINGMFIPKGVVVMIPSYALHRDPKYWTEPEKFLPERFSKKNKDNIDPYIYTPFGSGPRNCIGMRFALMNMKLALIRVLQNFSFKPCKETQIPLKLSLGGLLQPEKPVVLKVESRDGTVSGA
T2 sequence (Q00975 whole entry): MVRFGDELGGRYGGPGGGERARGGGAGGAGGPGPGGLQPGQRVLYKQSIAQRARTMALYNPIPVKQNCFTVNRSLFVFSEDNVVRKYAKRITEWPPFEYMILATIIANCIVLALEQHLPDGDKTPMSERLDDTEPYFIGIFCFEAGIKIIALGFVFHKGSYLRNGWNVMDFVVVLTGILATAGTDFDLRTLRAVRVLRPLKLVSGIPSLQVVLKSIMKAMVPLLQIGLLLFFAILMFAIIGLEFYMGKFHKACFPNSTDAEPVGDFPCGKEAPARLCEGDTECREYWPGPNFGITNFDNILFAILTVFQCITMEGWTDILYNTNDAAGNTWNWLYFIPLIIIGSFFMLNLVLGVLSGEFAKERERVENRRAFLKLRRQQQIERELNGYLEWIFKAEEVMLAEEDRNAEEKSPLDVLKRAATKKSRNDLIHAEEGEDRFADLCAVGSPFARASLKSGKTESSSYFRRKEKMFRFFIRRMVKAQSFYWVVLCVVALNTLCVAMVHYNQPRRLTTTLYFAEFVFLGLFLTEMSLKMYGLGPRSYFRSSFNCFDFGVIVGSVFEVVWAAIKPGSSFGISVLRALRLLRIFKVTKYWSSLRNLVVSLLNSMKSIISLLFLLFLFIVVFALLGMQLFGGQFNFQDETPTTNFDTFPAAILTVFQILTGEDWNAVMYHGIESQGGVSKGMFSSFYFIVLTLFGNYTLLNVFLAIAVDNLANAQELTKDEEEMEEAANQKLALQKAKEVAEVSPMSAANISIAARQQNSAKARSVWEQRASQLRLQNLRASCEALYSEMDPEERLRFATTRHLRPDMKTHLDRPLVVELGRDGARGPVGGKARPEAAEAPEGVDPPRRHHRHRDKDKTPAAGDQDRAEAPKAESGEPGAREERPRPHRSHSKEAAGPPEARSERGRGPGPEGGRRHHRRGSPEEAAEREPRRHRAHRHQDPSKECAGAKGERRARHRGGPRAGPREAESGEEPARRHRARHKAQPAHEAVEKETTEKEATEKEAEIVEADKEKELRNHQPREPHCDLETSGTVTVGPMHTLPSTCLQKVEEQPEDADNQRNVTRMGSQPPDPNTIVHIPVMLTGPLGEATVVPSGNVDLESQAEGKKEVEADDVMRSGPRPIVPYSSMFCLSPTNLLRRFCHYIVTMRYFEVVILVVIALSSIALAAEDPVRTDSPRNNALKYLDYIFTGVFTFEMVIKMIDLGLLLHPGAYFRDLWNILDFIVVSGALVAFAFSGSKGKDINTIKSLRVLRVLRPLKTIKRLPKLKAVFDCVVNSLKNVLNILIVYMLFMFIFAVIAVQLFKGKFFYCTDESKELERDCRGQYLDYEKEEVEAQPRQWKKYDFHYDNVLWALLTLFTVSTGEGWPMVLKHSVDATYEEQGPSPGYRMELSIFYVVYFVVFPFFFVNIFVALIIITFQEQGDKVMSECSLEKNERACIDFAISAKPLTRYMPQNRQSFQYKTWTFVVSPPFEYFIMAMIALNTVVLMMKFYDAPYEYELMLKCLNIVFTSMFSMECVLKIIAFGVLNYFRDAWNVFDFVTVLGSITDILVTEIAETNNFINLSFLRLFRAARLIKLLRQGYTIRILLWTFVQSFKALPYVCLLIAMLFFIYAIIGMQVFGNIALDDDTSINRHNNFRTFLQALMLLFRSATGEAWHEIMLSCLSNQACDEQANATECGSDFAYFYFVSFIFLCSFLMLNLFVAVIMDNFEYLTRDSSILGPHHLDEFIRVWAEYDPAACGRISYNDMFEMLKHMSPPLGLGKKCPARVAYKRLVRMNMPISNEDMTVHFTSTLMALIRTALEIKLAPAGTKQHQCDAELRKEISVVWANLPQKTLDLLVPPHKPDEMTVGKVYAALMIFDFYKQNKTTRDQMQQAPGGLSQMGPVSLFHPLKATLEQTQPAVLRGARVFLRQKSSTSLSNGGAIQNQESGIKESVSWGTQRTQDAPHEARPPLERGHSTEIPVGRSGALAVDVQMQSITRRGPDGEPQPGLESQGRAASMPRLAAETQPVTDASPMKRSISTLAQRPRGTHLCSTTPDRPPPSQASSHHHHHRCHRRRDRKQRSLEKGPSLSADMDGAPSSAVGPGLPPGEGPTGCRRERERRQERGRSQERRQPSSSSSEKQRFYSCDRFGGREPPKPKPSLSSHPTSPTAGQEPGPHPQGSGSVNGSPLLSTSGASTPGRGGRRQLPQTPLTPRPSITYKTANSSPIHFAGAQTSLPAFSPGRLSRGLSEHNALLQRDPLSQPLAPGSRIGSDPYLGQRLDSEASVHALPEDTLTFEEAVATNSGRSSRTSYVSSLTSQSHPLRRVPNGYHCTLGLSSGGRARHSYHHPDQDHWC
T2 sequence (Q02410 whole entry): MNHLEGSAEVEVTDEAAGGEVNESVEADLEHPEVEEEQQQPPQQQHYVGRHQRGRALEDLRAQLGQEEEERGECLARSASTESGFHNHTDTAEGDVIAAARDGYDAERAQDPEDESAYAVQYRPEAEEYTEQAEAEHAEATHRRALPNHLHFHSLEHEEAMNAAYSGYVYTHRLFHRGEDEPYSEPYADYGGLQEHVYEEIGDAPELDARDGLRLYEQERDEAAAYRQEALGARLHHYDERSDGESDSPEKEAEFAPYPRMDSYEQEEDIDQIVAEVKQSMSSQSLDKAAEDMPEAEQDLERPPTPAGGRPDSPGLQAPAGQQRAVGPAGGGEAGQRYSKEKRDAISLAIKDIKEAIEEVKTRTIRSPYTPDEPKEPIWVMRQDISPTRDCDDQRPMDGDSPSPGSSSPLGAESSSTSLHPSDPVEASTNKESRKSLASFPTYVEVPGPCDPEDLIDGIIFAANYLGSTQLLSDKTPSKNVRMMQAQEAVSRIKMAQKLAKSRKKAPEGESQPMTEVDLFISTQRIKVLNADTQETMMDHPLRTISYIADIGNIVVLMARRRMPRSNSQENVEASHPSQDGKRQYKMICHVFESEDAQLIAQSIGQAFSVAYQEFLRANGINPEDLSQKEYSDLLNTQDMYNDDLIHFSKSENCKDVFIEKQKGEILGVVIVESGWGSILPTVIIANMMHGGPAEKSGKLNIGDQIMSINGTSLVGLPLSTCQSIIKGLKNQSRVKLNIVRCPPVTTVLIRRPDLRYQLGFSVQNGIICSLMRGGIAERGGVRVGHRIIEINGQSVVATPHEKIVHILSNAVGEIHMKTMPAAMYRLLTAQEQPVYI

Structure (SMILES): COc1ccc(/C=C2\SC(=S)N(CCCC(=O)NNC(=O)c3ccccc3O)C2=O)cc1
- EC50 (HEK293 [1]): 8.29 µM (active)
- IC50 (HEK293 [2]): > 20 µM (inactive)
- IC50 (HEK293 [3]): 5.62 µM (active)
- AC50 [4]: 1.38 µM (active)
- IC50 (HEK293 [5]): 5.39 µM (active)
- IC50 (HEK293 [6]): > 20 µM (inactive)
- EC50 [7]: > 20 µM (inactive)
- IC50 [8]: > 80 µM (inactive)

Structure (SMILES): Cc1ccc(NC(=O)c2cc(=O)c3ccccc3o2)cc1S(=O)(=O)N1CCCCC1
- EC50 (HEK293 [1]): 8.74 µM (active)
- IC50 (HEK293 [2]): > 20 µM (inactive)
- IC50 (HEK293 [3]): 9.78 µM (active)
- IC50 (HEK293 [6]): > 20 µM (inactive)
- EC50 [7]: > 20 µM (inactive)

Structure (SMILES): CC(C)c1ccc(/C=C2\SC(=S)N(CCC(=O)N3CCCCC3CCO)C2=O)cc1 (stereo not given)
- AC50 [4]: 7.43 µM (active)
- IC50 [8]: 72.4 µM (inactive)

Structure (SMILES): CC(C)N1C/C(=C/c2ccsc2)C(=O)/C(=C/c2ccsc2)C1
- CC50 (Vero [9]): 5.33 µM (active)
- IC50 (Vero [10]): > 25 µM (active)
- EC50 [11]: 1.39 µM (active)
- EC50 [12]: 1.34 µM (active)

Structure (SMILES): C=CCn1c(SCC(=O)c2cccs2)nc2sc(C)c(C)c2c1=O
- IC50 (Vero [10]): 24.8 µM (active)

Structure (SMILES): Cc1ccc(-c2nn(-c3ccccc3)cc2/C=C/C(=O)O)o1
- IC50 [13]: 30.9 µM (active)
- IC50 [14]: 17.6 µM (active)

Structure (SMILES): Clc1ccccc1-c1cc(NCc2ccccc2)ncn1
- AC50 (Cytochrome P450 3A4): inconclusive
- AC50 (Cytochrome P450 2D6): 20 µM (inconclusive)

Structure (SMILES): CS(=O)(=O)Nc1ccc(S(=O)(=O)N2CCOCC2)cc1
- AC50 (Cytochrome P450 3A4): inconclusive

Structure (SMILES): O=C(N/N=C/c1cc(Br)ccc1O)C(=O)Nc1ccccc1OC(F)(F)C(F)F
- EC50 (cells [15]): > 350 µM (not active)
- IC50 [16]: 2.22 µM (active)
- EC50 [17]: 0.572 µM (active)
- EC50 [18]: 0.866 µM (active)
- EC50 (Streptococcus): 1.82 µM (active)
- AC50 [19]: 1.62 µM (active)
- EC50 (cells [20]): 10.9 µM (active)
- AC50 (INS1): 2.17 µM (active)
- EC50 [21]: 8.61 µM (active)
- IC50 [22]: 1.93 µM (active)
